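Test compounds were applied to cells in 96-well plates for 48 hours at 5 doses. GI50: concentration for 50% inhibition of growth. TGI: concentration producing complete growth inhibition.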
What follows are compounds tested on MDA-MB-468 breast (assay: inhibition of tumour cell growth, NCI panel, 48 h).

Compound	GI50	TGI
O=C(NCc1cn(Cc2cccc(Oc3ccccc3)c2)nn1)c1cccnc1Nc1ccc(F)cc1	5170 nM	> 100000 nM
CC(=O)/C(=C\c1ccc(Cl)cc1)c1ccccc1	36.1 nM	> 100000 nM
COc1cc(/C=C/C(=O)c2cccc(-n3cc(-c4ccccc4)[nH]c3=O)c2)cc(OC)c1OC	1800 nM	3540 nM
COc1ccc2c(c1)[C@@H](NC(C)=O)CCc1cc(OC)c(OC)c(OC)c1-2	69.8 nM	> 100000 nM
O=c1[nH]c2ccccc2n1C1CCNCC1	> 100000 nM	> 100000 nM
CC(Nc1ncnc2ccc(-c3cnc(N)nc3)cc12)c1ccccc1 (centres undefined)	1170 nM	4030 nM
O=C(CCCc1ccc(N(CCCl)CCCl)cc1)NCc1ccccc1	2750 nM	10300 nM
CC(C)=CCC/C(C)=C/CC/C(C)=C/CSC[C@H](NC(=O)CCCCCN1CCN(C)CC1)C(=O)NC1CCCCCC1	2060 nM	4890 nM
Cc1[nH]nc2ccc(-c3nc4cnc(N5CCN(C)CC5)cn4c3Nc3ccc(F)cc3Br)cc12	1570 nM	3310 nM
COC(=O)[C@@H](C)C[C@H](Cc1ccccc1)NC(=O)c1nc([C@@H](C[C@H](C(C)C)N(C)C(=O)[C@@H](NC(=O)[C@H]2C[C@H](O)CCN2C)C(C)C)OC(C)=O)sc1C(C)C	< 1.11 nM	
Nc1c(C(=O)Nc2cccc(Cl)c2)sc2nc3c(cc12)C(=O)CCC3	87.9 nM	1300 nM
CC1(C)N=C(N)N=C(N)N1c1ccc(OCCCNC(=O)Nc2ccc(S(=O)(=O)F)cc2)c(Cl)c1	818 nM	29100 nM
C=CCc1cccc(C=O)c1O	> 100000 nM	> 100000 nM
O=C1C=C(Nc2ccccc2)c2ccccc2C1=O	2040 nM	5940 nM
CCN(Cc1ccc(OC)cc1)c1ccc(CO)c(Cl)c1	16.7 nM	41.3 nM
CCC(=C(c1ccc(OCCN2CCCCC2)cc1)c1ccc(OCCN2CCCCC2)cc1)c1ccc(Cl)cc1	3330 nM	> 16700 nM
C[C@@H]1CN2[C@H]3[C@@H]1CC[C@]31CCC(=O)O[C@]1(C)[C@H]1CC[C@H]3CCC=C3[C@@H]12	> 30000 nM	> 30000 nM
N#CC1=C(N)Oc2c(sc3c(Br)cccc23)C1c1ccc([N+](=O)[O-])cc1 (centres undefined)	318 nM	7270 nM
COc1ccc(C2=NN(C(N)=S)C(c3ccc4c(c3)OCO4)C2)cc1 (centres undefined)	2680 nM	11000 nM
COC(=O)N[C@H]1CCc2cc(OC)c(OC)c(OC)c2-c2ccc(SC)c(=O)cc21	< 10 nM	> 100000 nM
CCN1CCN(CCC(=O)Nc2cccc(-n3cc(-c4ccncc4)c(-c4ccc(Cl)c(OC)c4)n3)c2)CC1	325 nM	1410 nM
CCOc1ccc(N(C)c2ccc(/C=C/C3=[N+](C)c4ccccc4C3(C)C)cc2)cc1	161 nM	1030 nM
N#CCCNc1nonc1-c1nc2ccccc2n1CC(=O)c1ccc(N)cc1	16.8 nM	68.3 nM
COC(=O)c1cc2ccc(O)c(O)c2cn1	14100 nM	27200 nM
CNC(=O)Oc1cc(C(C)C)ccc1Sc1ccc(C(C)C)cc1OC(=O)NC	2340 nM	9890 nM

Source: PubChem BioAssay (NCI)
